# According to US7511074B2, “Tetrafluorobenzyl derivatives and pharmaceutical composition for preventing and treating acute and chronic neurodegenerative diseases in central nervous system containing the same” (AmKor Pharma, Inc., priority 2002, dated 2009):
# “Also recorded” adds a separate entry of the source. Where two headings read alike, the source gives them in different places.
# Legend:
# [1] = tested on: Sprague-dawley rats, four-vessel occlusion; assay: Mitochondrial ROS generation after transient global ischemia (four-vessel occlusion); format: in vivo, rat; conditions: 50 mg/kg i.p. after reperfusion; 10 min four-vessel occlusion; analyzed 2 hr later
# Description: Mitotracker CM-H2X ROS was injected into the lateral ventricle of rat brain at 24 hr before ischemic surgery, and then animals received transient forebrain ischemia for 10 min, with intraperitoneal injections of vehicle (control) or 2-Hydroxy-TTBA (50 mg/kg) at 5 min after reperfusion. The levels of mitochondrial ROS were analyzed 2 hr later, mean ±S.E.M. (n=50-70 neurons randomly chosen from the CA1 sector of the hippocampal formation per each condition). *, Significant difference from the vehicle control, p<0.05 using the independent t-test.
# Male adult Sprague-dawley rats (250-300 g) were anesthetized with chloral hydrate and subjected to four-vessel occlusion model (occlusion of both common carotid arteries and vertebral arteries) as previously described [Pulsinelli and Brierley, stroke 10: 267-272 (1979)].
# Rats received the intracerebroventricular injections of 0.4 nmol Mitotracker CM-H2X Ros. After 24 hr, rats received four-vessel occlusion for 10 min. Immediately after reperfusion, rats received the intraperitoneal injections of saline (control) or 2-Hydroxy-TTBA (50 mg/kg). Levels of mitochondrial ROS were analyzed 2 hr later by measuring the fluorescence intensity of oxidized Mitotracker CM-H2X Ros in mitochondria.
# [2] = tested on: Mouse cortical cell cultures; assay: NMDA-induced excitotoxicity in mixed cortical cell cultures (LDH release); format: cell-based; conditions: 300 μM NMDA for 10 min, co-treatment; LDH release 24 hr later
# Description: (§1) Mouse cortical cell cultures (DIV 12-14) were exposed to 300 μM NMDA for 10 min, alone or with inclusion of 3-300 μM 2-Hydroxy-TTBA. Neuronal death was analyzed 24 hr later by measuring levels of LDH released into the bathing medium, mean ±SEM (n=9-12 culture wells per condition), scaled to mean LDH efflux value 24 hr after sham wash (=0) and continuous exposure to 500 μM NMDA (=100) that causes near complete neuronal death. *, Significant difference from the vehicle control, p<0.05 using ANOVA and Student-Neuman-Keuls' test.
# as §1, with “alone (□)” for “alone”, “2-Hydroxy-TTS (●), 2-Hydroxy-TTA (◯), 2-Ethan-TTBA (▾), 2-Propan-TTBA (∇), or 2-Cyclohexan-TTBA (▪).” for “2-Hydroxy-TTBA.”, “(=100).” for “(=100) that causes near complete neuronal death.”
# (§2) For mixed neuron-glia culture, mouse cerebral cortices were removed from brains of the 14-16 day-old-fetal mice (E14-16), gently triturated and plated on 24 well plates (2×10^5 cells/plate) precoated with 100 μg/ml poly-D-lysine and 4 μg/ml laminine. […]
# NMDA receptor = assay: Whole cell recording of NMDA-induced inward currents in cultured cortical neurons; format: cell-based, mouse
# Description: Typical NMDA-induced inward currents (NMDA currents) were evoked by applying 300 μM NMDA to cortical neurons which were held at […]. Successive application of various concentrations of 2-Hydroxy-TTBA reduced the response elicited by 300 μM NMDA in a concentration-dependent manner (n=8).
# Cortical neurons were treated with 100 μM 2-Hydroxy-TTBA, washed thoroughly, and then applied with 300 μM NMDA.
# Whole cell recordings were performed on cortical cell cultures at room temperature as described [Seo et al., J. Pharmacol. Exp. Ther., 299:377-384 (2001)]. Typical NMDA-induced inward currents (NMDA currents) were evoked immediately after applying 300 μM NMDA to cultured cortical neurons which were held at −70 mV.
# [3] = tested on: Mouse cortical cell cultures; assay: Zinc neurotoxicity in mixed cortical cell cultures (LDH assay); format: cell-based; conditions: 100 μM ZnCl2 for 30 min, concurrent treatment; LDH 24 hr later
# Description: Mouse cortical cell cultures (DIV 12-14) were exposed to […] for 30 min, alone or with inclusion of 3-300 μM 2-Hydroxy-TTBA. Neuronal death was analyzed 24 hr later by measuring levels of LDH released into the bathing medium, mean ±SEM (n=9-12 culture wells per condition), scaled to mean LDH efflux value 24 hr after sham wash (=0) and continuous exposure to 500 μM NMDA (=100).
# as §2, with “laminine. Cultures were maintained at 37° C. in a humidified 5% CO2 atmosphere.” for “laminine.”
# After 7-8 days in vitro (DIV 7-8), 10 μM cytosine arabinofuranoside (Ara-C) was included to halt overgrowth of glia. […] Overall neuronal cell injury was assessed by measuring amount of lactate dehydrogenase (LDH) released into the bathing medium 24 hr after neurotoxic insults as previously described [Koh and Choi, J Neurosci Methods 20:83-90, 1987].
# To induce zinc (Zn^2+) neurotoxicity, mixed cortical cell cultures were exposed to 100 μM ZnCl2 for 30 min in a HEPES-buffered control salt solution (HCSS): (in mM) 120 NaCl, 5 KCl, 1.6 MgCl2, 2.3 CaCl2, 15 glucose, 20 HEPES and 10 NaOH, alone or with 3-300 uM 2-Hydroxy-TTBA. […] Neuronal cell death was analyzed 24 hr later by LDH assay. […]
smiles,measurement,setting,value
"O=C(O)c1cc(NCc2c(F)c(F)c(C(F)(F)F)c(F)c2F)ccc1O [2-Hydroxy-TTBA, 2-hydroxy-5-(2,3,5,6-tetrafluoro-4-trifluoromethylbenzylamino)benzoic acid]",production of mitochondrial ROS after transient global ischemia,[1],reduced production of mitochondrial ROS
same,doses at which NMDA-induced neuronal death was blocked/prevented,[2],10 to 300 µM
same,effect on holding currents,NMDA receptor; 100 μM compound alone,had no effect on the holding currents
same,effect of pretreatment on response to subsequent 300 μM NMDA,"NMDA receptor; 100 μM compound applied alone, then 300 μM NMDA, n=6",did not influence NMDA-induced inward currents; also recorded: had little effect
same,Hill coefficient of dose response relation to NMDA currents,"NMDA receptor; 300 μM NMDA, neurons held at −60 mV, n=8",0.91
same,IC50,"NMDA receptor; 300 μM NMDA, neurons held at −60 mV, n=8, read-out: IC50 for NMDA currents (FIG. 2a legend)",~35 µM
same,IC50,"NMDA receptor; 300 μM NMDA, neurons held at −70 mV, bath application, n=7-15 neurons/condition, read-out: IC50 for depression of NMDA-evoked currents",30.6 ± 2.96 µM
same,doses at which zinc-induced neuronal death was prevented,[3],10 to 300 µM
